Measured values taken from patent US10487071B2, “Bis-triazole compounds with anti-biofilm and anti-corrosion properties” (Université de Toulon, priority 2015, dated 2019).
Where two headings read alike, the source gives them in different places.

Columns and labels:
[1] = Gravimetry (weight loss), corrosion inhibition; conditions: mild steel in 1N HCl
Protocol: The corrosion rates were determined by electrochemical impedance spectroscopy measurements and gravimetry.
Weight loss measurements were performed on 2.5×2.0×0.1 cm rectangular mild steel coupons. The mild steel coupons were immersed into non-de-aerated HCl 1N solution in absence and presence of different concentrations of compounds of general formula (I). After the elapsed time, the coupons were taken out, washed, dried and weighed accurately. Experiments were duplicated.
Weight loss experiments were done to confirm the corrosion inhibitive properties of AS164.
The inhibition efficiency, IE (%), was estimated from the weight loss experiments using the following equation:
[formula] wherein CR^o and CR are respectively the corrosion rate in the absence and presence of AS164.

Paracoccus sp. (4M6) = experiment: Anti-adhesion test, strain 4M6; type: cell-based; conditions: for activity at 200 µM: 15 h, read-out: % of adhesion at 200 μM, 4M6; for EC50: read-out: EC50 (effective concentration to inhibit 50% of the adhesion), 4M6
Protocol: (§1) The anti-adhesion bioassays and toxicity tests are adapted from those disclosed in M. Camps, J.-F. Briand, L. Guentas-Dombrowsky, G. Culioli, A. Bazire and Y. Blache, Mar. Poll.
(§2) Bacterial strains were grown on Väätänen nine-salts solution (VNSS). When the stationary phase was reached, the bacterial suspension was centrifuged. Cells were then diluted in sterile artificial sea water (ASW) and introduced in microtiter plates (sterile black PS; Nunc, Fisher Scientific, France) with the tested compound (at eight concentrations in three replicates) in the presence of three controls: (i) non-specific staining control, (ii) adhesion control, and (iii) positive control. The maximum percentage of solvent (DMSO 2%) used to dilute the tested compound was also tested in triplicate as additional control. After incubation during an optimized adhesion time (moderately 15 h), non-adhered bacteria were eliminated and adhered cells were quantified after SYTO 61 (1 μM) staining. A percentage of inhibition was calculated per well. A sigmoid dose-response curve was obtained by plotting the percentage of inhibition as a function of the log of tested compound concentration, after mean (n=3) and standard deviation (SD) calculation per triplicate for each concentration. EC50 values were then calculated for each compound.

[2] = system: Pseudoalteromonas ulvae (TC14); experiment: Anti-adhesion test, strain TC14; type: cell-based; conditions: Pseudoalteromonas ulvae; for activity at 200 µM: 15 h; for EC50: read-out: EC50 (effective concentration to inhibit 50% of the adhesion)
Protocol: as §2
Pseudoalteromonas ulvae (TC14) was isolated in June 2010 in the Military Harbor of Toulon (Mediterranean Sea, France) as described in F. Brian-Jaisson, A. Ortalo-Magné, L. Guentas-Dombrowsky, F. Armougom, Y. Blache, M. Molmeret, Microb. Ecol., 2014, 68, 94-110.

[3] = system: Pseudoalteromonas lipolytica (TC8); experiment: Anti-adhesion test, strain TC8; type: cell-based; conditions: for activity at 200 µM: 15 h, read-out: % of adhesion at 200 μM, TC8; for EC50: read-out: EC50 (effective concentration to inhibit 50% of the adhesion), TC8
Protocol: as §1, §2

Row | Compound | IE % ([1]; 0.1 ppm) [%] | IE % ([1]; 0.3 ppm) [%] | IE % ([1]; 0.5 ppm) [%] | IE % ([1]; 2 ppm) [%] | IE % ([1]; 10 ppm) [%] | activity at 200 µM (Paracoccus sp. (4M6); Paracoccus) [%] | activity at 200 µM [2] [%] | activity at 200 µM ([3]; Pseudoalteromonas lipolytica) [%] | EC50 [2] [µM] | EC50 ([3]; Pseudoalteromonas lipolytica) [µM] | EC50 (Paracoccus sp. (4M6); Paracoccus) [µM] | EC50 (Paracoccus sp. (4M6); strain 4M6) [µM] | EC50 ([3]; strain TC8) [µM]
1 | CN(C)CCOc1ccc(CCn2cc(CCCc3cn(CCc4ccc(OCCN(C)C)c(Br)c4)nn3)nn2)cc1Br [AS158] | 53.41 | 87.00 | 91.72 | 95.98 | 97.17 | 51.5 ± 3 | 55.8 ± 3.8 | 57 ± 2.2 |  |  |  |  | 
2 | CN(C)CCOc1ccc(CCn2cc(CCCCc3cn(CCc4ccc(OCCN(C)C)c(Br)c4)nn3)nn2)cc1Br [AS159, 2-(4-(2-(4-(4-(1-(4-(2-(dimethylamino)ethoxy)-3-bromophenethyl)-1H-1,2,3-triazol-4-yl)butyl)-1H-1,2,3-triazol-1-yl)ethyl)-2-bromophenoxy)-N,N-dimethylethanamine] | 39.96 | 89.62 | 91.95 | 95.63 | 97.30 | 57.4 ± 1.6 | 61.5 ± 1 | 58.4 ± 4.3 |  |  |  |  | 
3 | CN(C)CCOc1ccc(CCn2cc(CCCCCCc3cn(CCc4ccc(OCCN(C)C)c(Br)c4)nn3)nn2)cc1Br [AS160, 2-(4-(2-(4-(6-(1-(4-(2-(dimethylamino)ethoxy)-3-bromophenethyl)-1H-1,2,3-triazol-4-yl)hexyl)-1H-1,2,3-triazol-1-yl)ethyl)-2-bromophenoxy)-N,N-dimethylethanamine] | 71.40 | 92.14 | 92.66 | 96.06 | 97.03 | 59.5 ± 2.2 | 67.4 ± 4 | 54.3 ± 10.8 |  |  |  |  | 
4 | CN(C)CCOc1ccc(CCn2cc(-c3cccc(-c4cn(CCc5ccc(OCCN(C)C)c(Br)c5)nn4)c3)nn2)cc1Br [AS161, 2-(4-(2-(4-(3-(1-(4-(2-(dimethylamino)ethoxy)-3-bromophenethyl)-1H-1,2,3-triazol-4-yl)phenyl)-1H-1,2,3-triazol-1-yl)ethyl)-2-bromophenoxy)-N,N-dimethylethanamine] | 86.75 | 86.21 | 94.07 | 97.10 | 98.33 |  |  |  |  |  |  |  | 
5 | CN(C)CCCOc1ccc(CCn2cc(CCCc3cn(CCc4ccc(OCCCN(C)C)c(Br)c4)nn3)nn2)cc1Br [AS168, 3-(4-(2-(4-(3-(1-(4-(3-(dimethylamino)propoxy)-3-bromophenethyl)-1H-1,2,3-triazol-4-yl)propyl)-1H-1,2,3-triazol-1-yl)ethyl)-2-bromophenoxy)-N,N-dimethylpropan-1-amine] |  |  |  |  |  | 77.1 ± 2.4 | 53.8 ± 5.9 | 59.9 ± 6.4 |  |  |  |  | 
6 | CN(C)CCCOc1ccc(CCn2cc(-c3cccc(-c4cn(CCc5ccc(OCCCN(C)C)c(Br)c5)nn4)c3)nn2)cc1Br [AS171, 3-(4-(2-(4-(3-(1-(4-(3-(dimethylamino)propoxy)-3-bromophenethyl)-1H-1,2,3-triazol-4-yl)phenyl)-1H-1,2,3-triazol-1-yl)ethyl)-2-bromophenoxy)-N,N-dimethylpropan-1-amine] | 53.82 | 86.91 | 91.72 | 97.25 | 98.51 |  |  |  |  |  |  |  | 
7 | CN(C)CCCOc1ccc(CCn2cc(COCc3cn(CCc4ccc(OCCCN(C)C)c(Br)c4)nn3)nn2)cc1Br [AS173, 3-(4-(2-(4-(((1-(4-(3-(dimethylamino)propoxy)-3-bromophenethyl)-1H-1,2,3-triazol-4-yl)methoxy)methyl)-1H-1,2,3-triazol-1-yl)ethyl)-2-bromophenoxy)-N,N-dimethylpropan-1-amine] | 46.78 | 86.70 | 92.47 | 95.77 | 97.95 | 53.7 ± 4 | 41.7 ± 1.6 | 51.6 ± 1 | 122 ± 59.1 |  |  |  | 
8 | CN(C)CCCOc1ccc(CCn2cc(CNCc3cn(CCc4ccc(OCCCN(C)C)c(Br)c4)nn3)nn2)cc1Br [AS174] | 53.41 | 87.00 | 91.72 | 95.98 | 97.17 | 56.3 ± 2.4 | 45 ± 0.8 | 55.4 ± 0.4 |  | 185 ± 16.2 |  |  | 
9 | COc1ccc(CCn2cc(CCCCc3cn(CCc4ccc(OC)c(Br)c4)nn3)nn2)cc1Br [NT3, 1-(3-bromo-4-methoxyphenethyl)-4-(4-(1-(3-bromo-4-methoxyphenethyl)-1H-1,2,3-triazol-4-yl)butyl)-1H-1,2,3-triazole] |  |  |  |  |  | 50.9 ± 0.3 | 53.3 ± 6.3 | 56.9 ± 1.7 |  |  |  |  | 
10 | COc1ccc(CCn2cc(COCc3cn(CCc4ccc(OC)c(Br)c4)nn3)nn2)cc1Br [NT6, 4-(((1-(3-bromo-4-methoxyphenethyl)-1H-1,2,3-triazol-4-yl)methoxy)methyl)-1-(3-bromo-4-methoxyphenethyl)-1H-1,2,3-triazole] |  |  |  |  |  | 44.9 ± 3.1 | 38.4 ± 7.4 | 42.7 ± 6.5 | 160 ± 33.5 | 181 ± 21.3 | 164 ± 6.3 |  | 
11 | COc1ccc(CCn2cc(CNCc3cn(CCc4ccc(OC)c(Br)c4)nn3)nn2)cc1Br [NT7, bis((1-(3-bromo-4-methoxyphenethyl)-1H-1,2,3-triazol-4-yl)methyl)amine] |  |  |  |  |  | 46.3 ± 2.7 | 37.4 ± 0.1 | 48.2 ± 2.1 | 138 ± 8.7 | 188 ± 3 | 194 ± 8 |  | 
12 | COc1ccc(CCn2cc(CCCc3cn(CCc4ccc(OC)c(Br)c4)nn3)nn2)cc1Br [NT10, 1-(3-bromo-4-methoxyphenethyl)-4-(3-(1-(3-bromo-4-methoxyphenethyl)-1H-1,2,3-triazol-4-yl)propyl)-1H-1,2,3-triazole] |  |  |  |  |  | 49.2 ± 0.8 | 50.4 ± 2.2 | 50 ± 4.9 |  |  | 182 ± 15.2 |  | 
13 | Oc1ccc(CCn2cc(CCCc3cn(CCc4ccc(O)c(Br)c4)nn3)nn2)cc1Br [NT21, 4-(2-(4-(3-(1-(3-bromo-4-hydroxyphenethyl)-1H-1,2,3-triazol-4-yl)propyl)-1H-1,2,3-triazol-1-yl)ethyl)-2-bromophenol] |  |  |  |  |  | 83.4 ± 3.9 | 53 ± 4 | 63 |  |  |  |  | 
14 | Oc1ccc(CCn2cc(CCCCc3cn(CCc4ccc(O)c(Br)c4)nn3)nn2)cc1Br [NT22, 4-(2-(4-(4-(1-(3-bromo-4-hydroxyphenethyl)-1H-1,2,3-triazol-4-yl)butyl)-1H-1,2,3-triazol-1-yl)ethyl)-2-bromophenol] |  |  |  |  |  | 52.4 ± 2.3 | 54.4 ± 1.7 | 85.6 ± 2.1 |  |  |  |  | 
15 | Oc1ccc(CCn2cc(-c3cccc(-c4cn(CCc5ccc(O)c(Br)c5)nn4)c3)nn2)cc1Br [NT24] |  |  |  |  |  | 61.5 ± 4.2 | 56.7 ± 1.3 | 66.5 ± 11.6 |  |  |  |  | 
16 | Oc1ccc(CCn2cc(COCc3cn(CCc4ccc(O)c(Br)c4)nn3)nn2)cc1Br [NT26] |  |  |  |  |  | 47.8 ± 0.1 | 40.2 ± 3.3 | 50.3 ± 5.79 | 127 ± 27.5 | 195 ± 10.7 | 198 ± 4.1 |  | 
17 | CN(C)CCOc1ccc(CCn2cc(-c3ccc(-c4cn(CCc5ccc(OCCN(C)C)cc5)nn4)cc3)nn2)cc1 [SA11, 2-(4-(2-(4-(4-(1-(4-(2-(dimethylamino)ethoxy)phenethyl)-1H-1,2,3-triazol-4-yl)phenyl)-1H-1,2,3-triazol-1-yl)ethyl)phenoxy)-N,N-dimethylethanamine] | 90.50 | 93.32 | 95.49 | 96.95 | 97.11 |  |  |  |  |  |  |  | 
18 | CN(C)CCOc1ccc(CCCn2cc(-c3ccc(-c4cn(CCCc5ccc(OCCN(C)C)c(Br)c5)nn4)cc3)nn2)cc1Br [SA31, 2-(4-(3-(4-(4-(1-(3-(4-(2-(dimethylamino)ethoxy)-3-bromophenyl)propyl)-1H-1,2,3-triazol-4-yl)phenyl)-1H-1,2,3-triazol-1-yl)propyl)-2-bromophenoxy)-N,N-dimethylethanamine] | 80.79 | 93.00 | 95.44 | 96.17 | 96.56 |  |  |  |  |  |  |  | 
19 | tributyltin oxide [TBTO, reference compound] |  |  |  |  |  |  |  |  |  |  |  | 4 ± 3 | 7 ± 3
